Assay results published in US20220370416A1, “COMPOUNDS AND METHODS FOR TARGETED DEGRADATION OF KRAS” (Arvinas Operations, Inc., priority 2020, published 2022).

Biological target: HiBit-KRAS^G12C (Homo sapiens, UniProt P01116, G12C)
Assay: HiBit degradation assay in SW1573 HiBit-KRas^G12C cells
Format: cell-based
Design: expressed in transfected cells; host or cells: SW1573 (clone E6), modified pcDNA3.1 vector, TK promoter
Conditions: 0.1% DMSO, 24 hours; for DC50: SW1573 HiBit-KRas^G12C, read-out: KRas^G12C-HIBit (SW1573; 0.1% DMSO) DC50*; for Dmax: SW1573, SW1573 HiBit-KRas^G12C, read-out: KRas^G12C-HiBit (SW1573; 0.1% DMSO) Dmax**
Method: Reagents. SW1573 (CRL-2170) and MiaPaCa-2 (CRL-1420) cells were purchased from ATCC. Both cell lines are […] for the G12C mutation in KRAS. SW1573 cells were cultured in DMEM+F12+Glutamax (+Sodium Bicarbonate, +sodium pyruvate, Thermofisher scientific, #10565) supplemented with 10% FBS (Thermofisher scientific, #2060357) and 1% Antibiotic-Antimycotic (Thermofisher scientific, #15240096). MiaPaCa-2 cells were cultured in DMEM+Glutamax media (Thermofisher scientific, #10566) supplemented with 10% FBS (Thermofisher scientific, #2060357) and 1% Antibiotic-Antimycotic (Thermofisher scientific, #15240096). For degradation assays, 384 well plates were purchased from Corning (Corning® CellBIND® 384-well Flat Clear Bottom Black Polystyrene Microplates, Low Flange, #3770). Gambogic acid was purchased from Selleckchem (#S2448). Alamar blue was purchased from Thermofisher scientific (A50101) and used according to manufacturer instructions. The Nano-Glo® HiBit Lytic Detection System and Nano-Glo® HiBit Blotting System were purchased from Promega (#N3050 and #N2410) and used according to manufacturer instructions.
To create the SW1573 HiBit-KRAS^G12C cell line, the nucleotide sequence encoding the 11 amino acid HiBit tag from Promega (Schwinn, M. K. et al. (2018) CRISPR-mediated tagging of endogenous proteins with a luminescent peptide. ACS Chem. Biol. 13(2), 467-474) was appended to the N-terminus of the KRAS^G12C coding sequence. This synthesized DNA was cloned into a modified pcDNA3.1 vector under the control of the thymidine kinase (TK) promoter. This HiBit-KRAS^G12C expressing plasmid was transfected into parental SW1573 cells and colonies were selected using 400 μg/mL zeocin. The resulting clonal lines were screened for expression of HiBit-KRAS^G12C protein using Nano-Glo® HiBit Blotting System. A luminescent band of the correct size for HiBit-KRAS^G12C was detected in several clones. Clone E6 was selected for further studies.
Either SW1573 HiBit-KRas^G12C or MiaPaCa-2 HiBit-KRas^G12C cells were plated at 9000 cells/well in a 384 well plate (Corning #3770). Exemplary heterobifunctional molecules and positive controls were diluted in the appropriate cell media and applied to the plated cells resulting in a final concentration titration of 10 μM to 20 nM in either 0.1% or 0.5% dimethyl sulfoxide (DMSO). Gambogic acid was used as a positive control for cytotoxicity and titrated from 10 μM to 78 nM. All assays were performed in triplicate. Cells were treated with compounds for 24 hours at 37° C. in an incubator containing 5% CO2. Following treatment, alamar blue was used to determine if any compounds led to a loss in cell viability after 24 hours. The 10× alamar blue reagent was added to a final concentration of 1× as recommended by the manufacturer and cells were returned to the incubator for 4 hours. Plates were then allowed to equilibrate to room temperature and fluorescence was measured using a Perkin-Elmer EnVision. After completion of the fluorescence read, the liquid from each well was removed and the cells were washed with PBS. The Nano-Glo® HiBiT detection reagent was prepared according to the manufacturer's instructions and added to each well after the PBS wash was removed. Following incubation at room temperature for 45 minutes, the luminescence was read using the ultra-sensitive luminescence aperture on the Envision instrument.
Fluorescence values from the alamar blue treatment were normalized to the DMSO only control for each compound titration. We hypothesized that compounds that led to a ≥50% loss in cell viability of the KRAS-independent SW1573 HiBit-KRas^G12C cells were likely generally cytotoxic and loss of HiBit-KRAS^G12C signal from these compounds may be due to lower cell number and not specific KRAS^G12C degradation. These points were therefore excluded from the data analysis for degradation. […]

HiBit-KRAS^G12C, sequence (P01116 1-186 isoform P01116-2 G12C limits assumed): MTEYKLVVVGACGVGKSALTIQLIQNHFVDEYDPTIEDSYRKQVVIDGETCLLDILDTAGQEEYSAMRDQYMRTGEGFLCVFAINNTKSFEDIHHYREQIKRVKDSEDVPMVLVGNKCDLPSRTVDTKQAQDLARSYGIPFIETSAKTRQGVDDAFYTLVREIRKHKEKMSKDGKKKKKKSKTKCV

SMILES | DC50 [nM] | Dmax [%]
C=CC(=O)N1CCN(c2nc(O[C@H](C)CN3CCC(CC(=O)N[C@H](C(=O)N4C[C@H](O)C[C@H]4C(=O)N[C@@H](C)c4ccc(-c5scnc5C)cc4)C(C)(C)C)CC3)nc3c(F)c(-c4cc(O)cc5ccccc45)c(Cl)cc23)CC1 [Compound 38, (2S,4R)-1-[(2S)-2-(2-{1-[(2R)-2-{[6-chloro-8-fluoro-7-(3-hydroxynaphthalen-1-yl)-4-[4-(prop-2-enoyl)piperazin-1-yl]quinazolin-2-yl]oxy}propyl]piperidin-4-yl}acetamido)-3,3-dimethylbutanoyl]-4-hydroxy-N-[(1S)-1-[4-(4-methyl-1,3-thiazol-5-yl)phenyl]ethyl]pyrrolidine-2-carboxamide] | > 1000 | 
C=CC(=O)N1CCN(c2nc(OCCN3CCC(COCC(=O)N[C@H](C(=O)N4C[C@@H](O)C[C@H]4C(=O)N[C@@H](C)c4ccc(-c5scnc5C)cc4)C(C)(C)C)CC3)nc3c(F)c(-c4cc(O)cc5ccccc45)c(Cl)cc23)CC1 [Compound 8, (2S,4S)-1-[(2S)-2-(2-{[1-(2-{[6-chloro-8-fluoro-7-(3-hydroxynaphthalen-1-yl)-4-[4-(prop-2-enoyl)piperazin-1-yl]quinazolin-2-yl]oxy}ethyl)piperidin-4-yl]methoxy}acetamido)-3,3-dimethylbutanoyl]-4-hydroxy-N-[(1S)-1-[4-(4-methyl-1,3-thiazol-5-yl)phenyl]ethyl]pyrrolidine-2-carboxamide] | > 1000 | 
C=CC(=O)N1CCN(c2nc(O[C@H](C)CN3CCC(CN(C)[C@H]4C[C@@H](OCC(=O)N[C@H](C(=O)N5C[C@H](O)C[C@H]5C(=O)N[C@@H](C)c5ccc(-c6scnc6C)cc5)C(C)(C)C)C4)CC3)nc3c(F)c(-c4cc(O)cc5ccccc45)c(Cl)cc23)CC1 [Compound 47, (2S,4R)-1-[(2S)-3,3-dimethyl-2-(2-[(1s,3s)-3-[({1-[(2R)-2-{[6-chloro-8-fluoro-7-(3-hydroxynaphthalen-1-yl)-4-[4-(prop-2-enoyl)piperazin-1-yl]quinazolin-2-yl]oxy}propyl]piperidin-4-yl}methyl)(methyl)amino]cyclobutoxy]acetamido}butanoyl]-4-hydroxy-N-[(1S)-1-[4-(4-methyl-1,3-thiazol-5-yl)phenyl]ethyl]pyrrolidine-2-carboxamide] | > 1000 | 
C=C(F)C(=O)N1CCN(c2nc(O[C@H](C)CN3CCC(COc4cc([C@H](C(=O)N5C[C@H](O)C[C@H]5C(=O)N[C@@H](C)c5ccc(-c6scnc6C)cc5)C(C)C)on4)CC3)nc3c(F)c(-c4cc(O)cc5ccccc45)c(Cl)cc23)CC1 [Compound 14, (2S,4R)-1-[(2R)-2-[3-({1-[(2R)-2-({6-chloro-8-fluoro-4-[4-(2-fluoroprop-2-enoyl)piperazin-1-yl]-7-(3-hydroxynaphthalen-1-yl)quinazolin-2-yl}oxy)propyl]piperidin-4-yl}methoxy)-1,2-oxazol-5-yl]-3-methylbutanoyl]-4-hydroxy-N-[(1S)-1-[4-(4-methyl-1,3-thiazol-5-yl)phenyl]ethyl]pyrrolidine-2-carboxamide] | > 1000 | 
C=CC(=O)N1CCN(c2nc(O[C@H](C)CN3CCN(CCCC4CCN(CC(=O)N[C@H](C(=O)N5C[C@H](O)C[C@H]5C(=O)N[C@@H](C)c5ccc(-c6scnc6C)cc5)C(C)(C)C)CC4)CC3)nc3c(F)c(-c4cc(O)cc5ccccc45)c(Cl)cc23)CC1 [Compound 52, (2S,4R)-1-[(2S)-2-{2-[4-(3-{4-[(2R)-2-{[6-chloro-8-fluoro-7-(3-hydroxynaphthalen-1-yl)-4-[4-(prop-2-enoyl)piperazin-1-yl]quinazolin-2-yl]oxy}propyl]piperazin-1-yl}propyl)piperidin-1-yl]acetamido}-3,3-dimethylbutanoyl]-4-hydroxy-N-[(1S)-1-[4-(4-methyl-1,3-thiazol-5-yl)phenyl]ethyl]pyrrolidine-2-carboxamide] | > 1000 | 
C=CC(=O)N1CCN(c2nc(O[C@H](C)CN3CCC(OCCOCCOCCOCCOCCOc4cc(-c5scnc5C)ccc4CNC(=O)[C@@H]4C[C@@H](O)CN4C(=O)[C@H](c4cc(C)no4)C(C)C)CC3)nc3c(F)c(-c4cc(O)cc5ccccc45)c(Cl)cc23)CC1 [Compound 79, (2S,4R)-N-[(2-{[14-({1-[(2R)-2-{[6-chloro-8-fluoro-7-(3-hydroxynaphthalen-1-yl)-4-[4-(prop-2-enoyl)piperazin-1-yl]quinazolin-2-yl]oxy}propyl]piperidin-4-yl}oxy)-3,6,9,12-tetraoxatetradecan-1-yl]oxy}-4-(4-methyl-1,3-thiazol-5-yl)phenyl)methyl]-4-hydroxy-1-[(2S)-3-methyl-2-(3-methyl-1,2-oxazol-5-yl)butanoyl]pyrrolidine-2-carboxamide] | > 1000 | 

Other lines, results leading:

DC50 [nM] | Dmax [%] | SMILES
> 1000 |  | C=CC(=O)N1CCN(c2nc(O[C@H](C)CN3CCC(OCCOCCOc4cc(-c5scnc5C)ccc4CNC(=O)[C@@H]4C[C@@H](O)CN4C(=O)[C@@H](c4cc(C)no4)C(C)C)CC3)nc3c(F)c(-c4cc(O)cc5ccccc45)c(Cl)cc23)CC1 [Compound 72, (2S,4R)-N-[(2-{2-[2-({1-[(2R)-2-{[6-chloro-8-fluoro-7-(3-hydroxynaphthalen-1-yl)-4-[4-(prop-2-enoyl)piperazin-1-yl]quinazolin-2-yl]oxy}propyl]piperidin-4-yl}oxy)ethoxy]ethoxy}-4-(4-methyl-1,3-thiazol-5-yl)phenyl)methyl]-4-hydroxy-1-[(2R)-3-methyl-2-(3-methyl-1,2-oxazol-5-yl)butanoyl]pyrrolidine-2-carboxamide]
> 1000 | < 35 | C=CC(=O)N1CCN(c2nc(OCCN3CCC(OCCOCC(=O)N[C@H](C(=O)N4C[C@H](O)C[C@H]4C(=O)N[C@@H](C)c4ccc(-c5scnc5C)cc4)C(C)(C)C)CC3)nc3c2CCN(c2cccc4cccc(C)c24)C3)C[C@@H]1CC#N [Compound 30, (2S,4R)-1-[(2S)-2-{2-[2-({1-[2-({4-[(3S)-3-(cyanomethyl)-4-(prop-2-enoyl)piperazin-1-yl]-7-(8-methylnaphthalen-1-yl)-5H,6H,7H,8H-pyrido[3,4-d]pyrimidin-2-yl}oxy)ethyl]piperidin-4-yl}oxy)ethoxy]acetamido}-3,3-dimethylbutanoyl]-4-hydroxy-N-[(1S)-1-[4-(4-methyl-1,3-thiazol-5-yl)phenyl]ethyl]pyrrolidine-2-carboxamide]
> 1000 | 35 to 70 | C=CC(=O)N1CCN(c2nc(OC[C@@H]3C[C@@H](OCCOc4cc(-c5scnc5C)ccc4CNC(=O)[C@@H]4C[C@@H](O)CN4C(=O)[C@@H](c4cc(C)no4)C(C)C)CN3C)nc3c2CCN(c2cccc4ccccc24)C3)C[C@@H]1CC#N [Compound 87, (2S,4R)-N-{[2-(2-{[(3R,5S)-5-[({4-[(3S)-3-(cyanomethyl)-4-(prop-2-enoyl)piperazin-1-yl]-7-(naphthalen-1-yl)-5H,6H,7H,8H-pyrido[3,4-d]pyrimidin-2-yl}oxy)methyl]-1-methylpyrrolidin-3-yl]oxy}ethoxy)-4-(4-methyl-1,3-thiazol-5-yl)phenyl]methyl}-4-hydroxy-1-[(2R)-3-methyl-2-(3-methyl-1,2-oxazol-5-yl)butanoyl]pyrrolidine-2-carboxamide]
